# What was measured:
# PARP = conditions: 786-O cells; 2.5-15 μM; 48 h
# p21 (T145) = conditions: HEK293 cells; 48 h
# AAK1 = AAK1 (Homo sapiens, UniProt Q2M2I8); assay: biochemical; conditions: read-out: %Ctrl @ 2000nM
# ABL1-nonphosphorylated = ABL1-nonphosphorylated (Homo sapiens, UniProt P00519); assay: biochemical; conditions: read-out: %Ctrl @ 2000nM
# BRAF = BRAF (Homo sapiens, UniProt P15056); assay: biochemical; conditions: read-out: %Ctrl @ 2000nM
# BUB1 = BUB1 (Homo sapiens, UniProt O43683); assay: biochemical; conditions: read-out: %Ctrl @ 2000nM
# CAMKK1 = CAMKK1 (Homo sapiens, UniProt Q8N5S9); assay: biochemical; conditions: read-out: %Ctrl @ 2000nM
# CDKL3 = CDKL3 (Homo sapiens, UniProt Q8IVW4); assay: biochemical; conditions: read-out: %Ctrl @ 2000nM
# CSNK1E = CSNK1E (Homo sapiens, UniProt P49674); assay: biochemical; conditions: read-out: %Ctrl @ 2000nM
# DCAMKL3 = DCAMKL3 (Homo sapiens, UniProt Q9C098); assay: biochemical; conditions: read-out: %Ctrl @ 2000nM
# DYRK2 = DYRK2 (Homo sapiens, UniProt Q92630); assay: biochemical; conditions: read-out: %Ctrl @ 2000nM
# EGFR(G719S) = EGFR(G719S) (Homo sapiens, UniProt P00533, G719S); assay: biochemical; conditions: read-out: %Ctrl @ 2000nM
# EIF2AK1 = EIF2AK1 (Homo sapiens, UniProt Q9BQI3); assay: biochemical; conditions: read-out: %Ctrl @ 2000nM
# EPHA1 = EPHA1 (Homo sapiens, UniProt P21709); assay: biochemical; conditions: read-out: %Ctrl @ 2000nM
# GRK4 = GRK4 (Homo sapiens, UniProt P32298); assay: biochemical; conditions: read-out: %Ctrl @ 2000nM
# JNK2 = JNK2 (Homo sapiens, UniProt P45984); assay: biochemical; conditions: read-out: %Ctrl @ 2000nM
# KIT(V559D) = KIT(V559D) (Homo sapiens, UniProt P10721, V559D); assay: biochemical; conditions: read-out: %Ctrl @ 2000nM
# MAP3K3 = MAP3K3 (Homo sapiens, UniProt Q99759); assay: biochemical; conditions: read-out: %Ctrl @ 2000nM
# MARK4 = MARK4 (Homo sapiens, UniProt Q96L34); assay: biochemical; conditions: read-out: %Ctrl @ 2000nM
# MLK3 = MLK3 (Homo sapiens, UniProt Q16584); assay: biochemical; conditions: read-out: %Ctrl @ 2000nM
# MLK3, sequence (Q16584 whole entry): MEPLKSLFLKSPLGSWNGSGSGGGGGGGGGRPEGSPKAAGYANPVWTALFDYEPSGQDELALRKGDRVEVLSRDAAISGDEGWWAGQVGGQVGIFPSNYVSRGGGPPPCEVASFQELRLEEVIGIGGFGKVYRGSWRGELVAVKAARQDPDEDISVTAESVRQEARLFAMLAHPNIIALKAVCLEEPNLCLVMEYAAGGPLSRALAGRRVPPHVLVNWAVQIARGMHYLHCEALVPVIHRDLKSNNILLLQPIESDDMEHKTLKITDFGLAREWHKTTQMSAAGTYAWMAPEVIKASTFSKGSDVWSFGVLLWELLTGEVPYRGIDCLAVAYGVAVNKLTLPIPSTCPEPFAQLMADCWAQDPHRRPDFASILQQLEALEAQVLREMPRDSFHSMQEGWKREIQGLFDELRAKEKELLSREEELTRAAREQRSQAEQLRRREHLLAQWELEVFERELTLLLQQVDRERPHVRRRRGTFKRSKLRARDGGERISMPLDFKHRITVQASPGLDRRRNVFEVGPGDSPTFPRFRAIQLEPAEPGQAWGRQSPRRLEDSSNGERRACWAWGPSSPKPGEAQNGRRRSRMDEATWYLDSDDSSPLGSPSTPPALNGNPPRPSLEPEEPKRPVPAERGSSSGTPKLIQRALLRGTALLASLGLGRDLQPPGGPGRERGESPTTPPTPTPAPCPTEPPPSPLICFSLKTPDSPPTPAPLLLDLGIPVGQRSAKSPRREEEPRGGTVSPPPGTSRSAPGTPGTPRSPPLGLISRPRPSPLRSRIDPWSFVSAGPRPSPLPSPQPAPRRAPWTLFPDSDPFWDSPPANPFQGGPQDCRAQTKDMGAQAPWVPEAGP
# MST1 = MST1 (Homo sapiens, UniProt Q13043); assay: biochemical; conditions: read-out: %Ctrl @ 2000nM
# MST2 = MST2 (Homo sapiens, UniProt Q13188); assay: biochemical; conditions: read-out: %Ctrl @ 2000nM
# NEK4 = NEK4 (Homo sapiens, UniProt P51957); assay: biochemical; conditions: read-out: %Ctrl @ 2000nM
# NIM1 = NIM1 (Homo sapiens, UniProt Q8IY84); assay: biochemical; conditions: read-out: %Ctrl @ 2000nM
# NIM1, sequence (Q8IY84 whole entry): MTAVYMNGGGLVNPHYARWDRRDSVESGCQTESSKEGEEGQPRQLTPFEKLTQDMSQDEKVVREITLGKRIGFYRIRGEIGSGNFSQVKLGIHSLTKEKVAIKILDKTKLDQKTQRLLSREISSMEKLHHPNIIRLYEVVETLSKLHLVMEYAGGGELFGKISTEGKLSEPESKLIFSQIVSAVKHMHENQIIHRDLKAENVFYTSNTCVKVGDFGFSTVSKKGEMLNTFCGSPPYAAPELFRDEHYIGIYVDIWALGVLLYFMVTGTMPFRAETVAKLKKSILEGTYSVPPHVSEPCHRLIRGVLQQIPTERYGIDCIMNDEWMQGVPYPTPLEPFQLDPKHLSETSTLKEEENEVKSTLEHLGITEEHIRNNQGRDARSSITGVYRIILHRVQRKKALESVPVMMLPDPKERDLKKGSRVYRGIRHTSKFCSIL
# PAK2 = PAK2 (Homo sapiens, UniProt Q13177); assay: biochemical; conditions: read-out: %Ctrl @ 2000nM
# PFTK1 = PFTK1 (Homo sapiens, UniProt O94921); assay: biochemical; conditions: read-out: %Ctrl @ 2000nM
# PHKG2 = PHKG2 (Homo sapiens, UniProt P15735); assay: biochemical; conditions: read-out: %Ctrl @ 2000nM
# PIK3CA(H1047Y) = PIK3CA(H1047Y) (Homo sapiens, UniProt P42336, H1047Y); assay: biochemical; conditions: read-out: %Ctrl @ 2000nM
# PLK4 = PLK4 (Homo sapiens, UniProt O00444); assay: biochemical; conditions: read-out: %Ctrl @ 2000nM
# QSK = QSK (Homo sapiens, UniProt Q9Y2K2); assay: biochemical; conditions: read-out: %Ctrl @ 2000nM
# RAF1 = RAF1 (Homo sapiens, UniProt P04049); assay: biochemical; conditions: read-out: %Ctrl @ 2000nM
# RIPK2 = RIPK2 (Homo sapiens, UniProt O43353); assay: biochemical; conditions: read-out: %Ctrl @ 2000nM
# RIPK4 = RIPK4 (Homo sapiens, UniProt P57078); assay: biochemical; conditions: read-out: %Ctrl @ 2000nM
# [1] = target: RPS6KA5(Kin.Dom.2-C-terminal) (Homo sapiens, UniProt O75582); assay: biochemical
# RPS6KA5(Kin.Dom.2-C-terminal), sequence (O75582 388-802 limits assumed): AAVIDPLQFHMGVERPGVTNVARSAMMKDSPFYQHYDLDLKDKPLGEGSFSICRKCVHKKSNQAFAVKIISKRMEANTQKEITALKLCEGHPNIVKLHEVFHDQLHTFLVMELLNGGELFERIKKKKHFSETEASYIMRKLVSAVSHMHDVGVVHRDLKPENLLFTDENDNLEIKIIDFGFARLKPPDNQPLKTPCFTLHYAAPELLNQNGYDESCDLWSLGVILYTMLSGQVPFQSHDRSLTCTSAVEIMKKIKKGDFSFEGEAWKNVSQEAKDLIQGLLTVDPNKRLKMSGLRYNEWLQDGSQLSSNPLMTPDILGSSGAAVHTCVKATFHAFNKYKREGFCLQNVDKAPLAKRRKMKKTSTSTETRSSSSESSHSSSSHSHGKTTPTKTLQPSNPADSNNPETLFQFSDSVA
# SLK = SLK (Homo sapiens, UniProt Q9H2G2); assay: biochemical; conditions: read-out: %Ctrl @ 2000nM
# STK16 = STK16 (Homo sapiens, UniProt O75716); assay: biochemical; conditions: read-out: %Ctrl @ 2000nM
# STK16, sequence (O75716 whole entry): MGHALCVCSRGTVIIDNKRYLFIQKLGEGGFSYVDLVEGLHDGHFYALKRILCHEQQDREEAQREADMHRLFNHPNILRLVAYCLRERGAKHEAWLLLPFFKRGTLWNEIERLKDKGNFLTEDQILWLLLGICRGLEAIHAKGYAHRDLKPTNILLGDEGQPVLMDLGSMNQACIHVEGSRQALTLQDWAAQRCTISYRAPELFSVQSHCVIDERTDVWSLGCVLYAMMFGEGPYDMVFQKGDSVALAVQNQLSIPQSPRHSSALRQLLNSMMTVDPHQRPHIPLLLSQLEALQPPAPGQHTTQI
# SYK = SYK (Homo sapiens, UniProt P43405); assay: biochemical; conditions: read-out: %Ctrl @ 2000nM
# TAOK2 = TAOK2 (Homo sapiens, UniProt Q9UL54); assay: biochemical; conditions: read-out: %Ctrl @ 2000nM
# TLK2 = TLK2 (Homo sapiens, UniProt Q86UE8); assay: biochemical; conditions: read-out: %Ctrl @ 2000nM
# TLK2, sequence (Q86UE8 whole entry): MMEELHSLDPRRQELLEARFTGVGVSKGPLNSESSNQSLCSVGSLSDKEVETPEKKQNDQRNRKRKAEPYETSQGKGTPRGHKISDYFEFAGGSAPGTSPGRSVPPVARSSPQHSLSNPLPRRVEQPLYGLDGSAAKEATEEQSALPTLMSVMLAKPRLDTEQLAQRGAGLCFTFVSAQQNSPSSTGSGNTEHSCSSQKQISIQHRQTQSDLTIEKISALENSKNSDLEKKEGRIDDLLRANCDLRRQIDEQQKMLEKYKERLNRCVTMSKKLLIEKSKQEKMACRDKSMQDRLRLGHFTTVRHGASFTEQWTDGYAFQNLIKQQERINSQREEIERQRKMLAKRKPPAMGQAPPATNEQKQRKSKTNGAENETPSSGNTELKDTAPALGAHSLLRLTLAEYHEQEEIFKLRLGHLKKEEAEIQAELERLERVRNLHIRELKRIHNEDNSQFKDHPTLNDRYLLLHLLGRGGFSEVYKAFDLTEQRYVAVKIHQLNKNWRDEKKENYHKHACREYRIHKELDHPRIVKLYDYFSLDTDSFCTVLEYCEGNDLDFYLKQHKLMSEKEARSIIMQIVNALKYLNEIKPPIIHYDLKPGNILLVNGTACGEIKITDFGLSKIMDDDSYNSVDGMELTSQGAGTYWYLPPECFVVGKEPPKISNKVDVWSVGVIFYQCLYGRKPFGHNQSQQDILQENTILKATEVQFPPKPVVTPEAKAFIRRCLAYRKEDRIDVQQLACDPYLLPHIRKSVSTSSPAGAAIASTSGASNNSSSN
# [2] = target: TYK2(JH2domain-pseudokinase) (Homo sapiens, UniProt P29597); assay: biochemical; conditions: read-out: %Ctrl @ 2000nM
# VRK2 = VRK2 (Homo sapiens, UniProt Q86Y07); assay: biochemical; conditions: read-out: %Ctrl @ 2000nM
# VRK2, sequence (Q86Y07 whole entry): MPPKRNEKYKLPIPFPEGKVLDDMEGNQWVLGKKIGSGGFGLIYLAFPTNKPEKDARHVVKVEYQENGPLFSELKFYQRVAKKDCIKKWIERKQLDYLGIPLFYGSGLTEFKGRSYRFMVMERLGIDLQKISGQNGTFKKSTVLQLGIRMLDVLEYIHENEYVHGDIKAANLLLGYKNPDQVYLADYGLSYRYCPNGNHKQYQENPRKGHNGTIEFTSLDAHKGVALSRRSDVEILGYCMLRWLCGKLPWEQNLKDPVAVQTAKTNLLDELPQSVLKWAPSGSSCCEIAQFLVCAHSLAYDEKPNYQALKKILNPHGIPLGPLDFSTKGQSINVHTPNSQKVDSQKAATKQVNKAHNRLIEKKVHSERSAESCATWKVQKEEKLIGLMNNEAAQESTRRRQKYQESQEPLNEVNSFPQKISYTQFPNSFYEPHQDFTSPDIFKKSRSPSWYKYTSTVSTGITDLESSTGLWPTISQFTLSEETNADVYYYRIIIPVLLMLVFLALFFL
# YES = YES (Homo sapiens, UniProt P07947); assay: biochemical; conditions: read-out: %Ctrl @ 2000nM
# YES, sequence (P07947 whole entry): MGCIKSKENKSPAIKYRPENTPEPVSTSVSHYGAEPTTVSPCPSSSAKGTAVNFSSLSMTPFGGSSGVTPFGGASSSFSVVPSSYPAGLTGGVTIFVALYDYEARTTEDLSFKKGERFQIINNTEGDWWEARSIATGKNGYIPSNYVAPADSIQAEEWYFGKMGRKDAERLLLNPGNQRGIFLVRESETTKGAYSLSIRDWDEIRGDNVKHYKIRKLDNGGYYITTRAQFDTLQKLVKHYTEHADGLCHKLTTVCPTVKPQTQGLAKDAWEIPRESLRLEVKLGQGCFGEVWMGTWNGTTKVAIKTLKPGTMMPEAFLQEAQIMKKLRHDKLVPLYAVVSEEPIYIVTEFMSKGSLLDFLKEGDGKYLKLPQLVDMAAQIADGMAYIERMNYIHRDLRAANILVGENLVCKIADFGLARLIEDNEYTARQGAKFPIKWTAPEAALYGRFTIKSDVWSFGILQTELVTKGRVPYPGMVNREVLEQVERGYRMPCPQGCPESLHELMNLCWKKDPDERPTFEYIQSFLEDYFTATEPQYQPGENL
# YSK4 = YSK4 (Homo sapiens, UniProt Q56UN5); assay: biochemical; conditions: read-out: %Ctrl @ 2000nM
# ABL1-nonphosphorylated, sequence (P00519 whole entry): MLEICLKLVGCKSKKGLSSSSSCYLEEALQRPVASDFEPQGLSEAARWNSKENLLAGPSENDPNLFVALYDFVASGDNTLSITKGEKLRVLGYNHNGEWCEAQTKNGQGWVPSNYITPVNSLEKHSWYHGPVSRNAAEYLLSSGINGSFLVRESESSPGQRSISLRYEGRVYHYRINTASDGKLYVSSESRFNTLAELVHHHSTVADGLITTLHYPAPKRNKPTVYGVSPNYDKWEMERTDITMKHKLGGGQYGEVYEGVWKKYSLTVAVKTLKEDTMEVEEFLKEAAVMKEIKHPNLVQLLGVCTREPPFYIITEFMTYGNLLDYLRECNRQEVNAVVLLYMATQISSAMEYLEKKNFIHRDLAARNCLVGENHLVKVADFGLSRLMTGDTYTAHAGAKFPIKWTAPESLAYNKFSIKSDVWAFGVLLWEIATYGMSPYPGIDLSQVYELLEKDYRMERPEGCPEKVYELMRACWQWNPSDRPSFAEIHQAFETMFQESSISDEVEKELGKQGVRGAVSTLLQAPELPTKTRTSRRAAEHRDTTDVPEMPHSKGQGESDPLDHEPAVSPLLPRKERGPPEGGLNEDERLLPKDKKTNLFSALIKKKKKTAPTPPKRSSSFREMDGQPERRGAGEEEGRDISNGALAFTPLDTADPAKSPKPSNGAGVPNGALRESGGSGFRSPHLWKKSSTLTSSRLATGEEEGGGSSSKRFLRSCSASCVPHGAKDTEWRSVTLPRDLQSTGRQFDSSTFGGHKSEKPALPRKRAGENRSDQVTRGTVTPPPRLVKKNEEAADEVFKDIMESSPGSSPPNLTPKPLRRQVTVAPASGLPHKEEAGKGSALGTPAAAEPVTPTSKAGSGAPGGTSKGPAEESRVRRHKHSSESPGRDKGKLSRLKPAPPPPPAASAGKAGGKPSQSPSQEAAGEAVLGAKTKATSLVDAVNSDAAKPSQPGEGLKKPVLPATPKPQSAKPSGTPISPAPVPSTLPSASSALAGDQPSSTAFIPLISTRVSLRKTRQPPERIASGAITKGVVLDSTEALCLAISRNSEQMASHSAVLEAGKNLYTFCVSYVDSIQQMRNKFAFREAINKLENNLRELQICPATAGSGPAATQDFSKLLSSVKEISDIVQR
smiles,measurement,setting,value
"CC(C)COC(=O)c1[nH]c2ccc(F)cc2c1-c1cn(CC2CCN(CCNS(=O)(=O)c3ccc(CC(C)C)cc3)CC2)nn1 [AB668, isobutyl 5-fluoro-3-(1-((1-(2-((4-isobutylphenyl)sulfonamido)ethyl)piperidin-4-yl)methyl)-1H-1,2,3-triazol-4-yl)-1H-indole-2-carboxylate]",cleavage of PARP,PARP,cleavage of PARP
same,p21 phosphorylation,p21 (T145),weakly affected
same,remaining activity at 2 µM,AAK1,80%
same,remaining activity at 2 µM,ABL1-nonphosphorylated,96%
same,remaining activity at 2 µM,BRAF,100%
same,remaining activity at 2 µM,BUB1,94%
same,remaining activity at 2 µM,CAMKK1,88%
same,remaining activity at 2 µM,CDKL3,88%
same,remaining activity at 2 µM,CSNK1E,66%
same,remaining activity at 2 µM,DCAMKL3,91%
same,remaining activity at 2 µM,DYRK2,76%
same,remaining activity at 2 µM,EGFR(G719S),68%
same,remaining activity at 2 µM,EIF2AK1,88%
same,remaining activity at 2 µM,EPHA1,99%
same,remaining activity at 2 µM,GRK4,98%
same,remaining activity at 2 µM,JNK2,92%
same,remaining activity at 2 µM,KIT(V559D),98%
same,remaining activity at 2 µM,MAP3K3,100%
same,remaining activity at 2 µM,MARK4,87%
same,remaining activity at 2 µM,MLK3,99%
same,remaining activity at 2 µM,MST1,97%
same,remaining activity at 2 µM,MST2,97%
same,remaining activity at 2 µM,NEK4,86%
same,remaining activity at 2 µM,NIM1,84%
same,remaining activity at 2 µM,PAK2,81%
same,remaining activity at 2 µM,PFTK1,84%
same,remaining activity at 2 µM,PHKG2,88%
same,remaining activity at 2 µM,PIK3CA(H1047Y),100%
same,remaining activity at 2 µM,PLK4,94%
same,remaining activity at 2 µM,QSK,85%
same,remaining activity at 2 µM,RAF1,100%
same,remaining activity at 2 µM,RIPK2,83%
same,remaining activity at 2 µM,RIPK4,100%
same,remaining activity at 2 µM,[1]; read-out: %Ctrl @ 2000nM,43%
same,inhibition at 2 µM,[1]; read-out: percentage inhibition,> 50%
same,remaining activity at 2 µM,SLK,100%
same,remaining activity at 2 µM,STK16,82%
same,remaining activity at 2 µM,SYK,100%
same,remaining activity at 2 µM,TAOK2,100%
same,remaining activity at 2 µM,TLK2,88%
same,remaining activity at 2 µM,[2],100%
same,remaining activity at 2 µM,VRK2,78%
same,remaining activity at 2 µM,YES,100%
same,remaining activity at 2 µM,YSK4,100%

# Reference: article PMC10838953
